# Patent publication US20120277238A1, “PHARMACEUTICAL COMPOSITION CONTAINING FUSED HETERO-RING DERIVATIVE” (Shionogi & Co., Ltd, priority 2009, published 2012)
# What was measured:
# human HRH4 = biological target: T1, human HRH4 (Homo sapiens, UniProt Q9H3N8); assay: Histamine H4 receptor binding test ([3H]-Histamine radioligand binding); conditions: membrane fraction of CHO-K1 expressing human HRH4; [3H]-Histamine 15 nM; Ki by Cheng-Prusoff
# T1 construct: purchased PerkinElmer
# Experimental: Membrane fraction of CHO-K1 stably expressing human HRH4 was purchased from PerkinElmer. Radioligand binding assay was performed in 96 well polypropylene assay plates in a total assay volume of 150 μL. Membrane suspension (15 μg of protein) was mixed with [3H]-Histamine (PerkinElmer) at 15 nM and compounds at various concentration in 50 mM Tris-HCl pH7.4, 5 mM EDTA buffer. Assays were incubated for 60 min at room temperature, then the reactions were terminated by rapid filtration over 96-well GF/B filter plates (PerkinElmer) presoaked in 0.5% polyethyleneimine. Unbound radioactivity was eliminated by six times of wash with 350 μL of ice-cold 50 mM Tris pH7.4 buffer. When the filter plates were dried, Microscint-MS liquid scintillation fluid (PerkinElmer) was added to each well and retained radioactivity plates were counted in a Topcount liquid scintillation counter (PerkinElmer). Specific binding was calculated by subtracting non-specific binding determined in the presence of 100 μM unlabeled histamine from total count.
# The resulting data were analyzed for IC50 using the non-linear regression on XLfit.
# Affinity values (Ki) were then determined by Cheng-Prusoff equation.
# [1] = Bioavailability (BA) test and total body clearance test; assay type: in vivo; conditions: plasma; rat; oral 1 mg/kg dosage
# Experimental: (1) Animal: mice or rats (2) Breeding conditions: mice and rats are allowed to freely take solid feed and sterilized tap water (3) Dose and grouping: orally or intravenously administered at a predetermined dose; grouping is as follows (Dose depends on the compound)
# Oral administration: 1 to 30 mg/kg (n=2 to 3)
# Intravenous administration: 0.5 to 10 mg/kg (n=2 to 3)
# (4) Preparation of dosing solution: for oral administration, in a solution or a suspension state; for intravenous administration, in a solubilized state (5) Administration method: in oral administration, forcedly administer into ventriculus with oral probe; in intravenous administration, administer from caudal vein with a needle-equipped syringe (6) Evaluation items: blood is collected over time, and the plasma concentration of drug is measured by LC/MS/MS (7) Statistical analysis: regarding the transition of the plasma concentration, the area under the plasma concentration-time curve (AUC) and total body clearance (Clt) are calculated by non-linear least squares program WinNonlin (Registered trademark), and the bioavailability (BA) is calculated from the AUCs of the oral administration group and intravenous administration group
# The following values show the rat BA of the compounds on oral 1 mg/kg dosage.
# hERG (IKr) = biological target: T2, hERG (IKr) (Homo sapiens, UniProt Q12809); assay: hERG test (whole cell patch clamp, IKr); assay type: cell-based; conditions: HEK293 cells expressing hERG channel, pH 7.4, at 1 μmol/L, read-out: % inhibition of IKr (hERG tail peak current)
# T2 construct: expressed in transfected cells; host or cells: HEK293
# Excerpt: For the purpose of assessing risk of an electrocardiogram QT interval prolongation, effects on delayed rectifier K^+ current (IKr), which plays an important role in the ventricular repolarization process, was studied using HEK293 cells expressing human ether-a-go-go related gene (hERG) channel. After a cell was retained at a membrane potential of −80 mV by whole cell patch clamp method using an automated patch clamp system (PatchXpress 7000A, Axon Instruments Inc.), IKr induced by depolarization pulse stimulation at +50 mV for 2 seconds and, further, repolarization pulse stimulation at −50 mV for 2 seconds was recorded. […] From the recording IKr, an absolute value of the tail peak current was measured based on the current value at the resting membrane potential using an analysis software (DataXpress ver.1, Molecular Devices Corporation). Further, the % inhibition relative to the tail peak current before application of the test substance was calculated, and compared with the vehicle-applied group (0.1% dimethyl sulfoxide solution) to assess influence of the test substance on IKr.
# CYP1A2 = biological target: T3, CYP1A2 (Homo sapiens, UniProt P05177); assay: CYP inhibition test (pooled human hepatic microsome); assay type: in vitro ADME; conditions: 7-ethoxyresorufin O-deethylation
# T3 construct: enzyme, pooled human hepatic microsome 0.2 mg protein/mL; from tissue
# T3 sequence (P05177 1-516): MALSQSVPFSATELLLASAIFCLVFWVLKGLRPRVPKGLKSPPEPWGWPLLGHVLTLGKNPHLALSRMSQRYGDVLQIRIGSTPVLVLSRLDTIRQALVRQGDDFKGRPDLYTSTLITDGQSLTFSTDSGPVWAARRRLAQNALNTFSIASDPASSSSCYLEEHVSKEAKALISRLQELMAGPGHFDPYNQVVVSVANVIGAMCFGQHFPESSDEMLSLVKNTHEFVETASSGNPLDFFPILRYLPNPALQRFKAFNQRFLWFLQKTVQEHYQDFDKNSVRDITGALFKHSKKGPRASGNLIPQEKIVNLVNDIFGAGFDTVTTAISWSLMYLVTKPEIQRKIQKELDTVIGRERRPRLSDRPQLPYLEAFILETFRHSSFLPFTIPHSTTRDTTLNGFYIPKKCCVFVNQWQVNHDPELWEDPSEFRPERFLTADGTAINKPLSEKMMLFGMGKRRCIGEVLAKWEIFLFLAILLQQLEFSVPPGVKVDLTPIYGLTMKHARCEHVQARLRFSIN
# Experimental: (§1) Using commercially available pooled human hepatic microsome, and employing, as markers, 7-ethoxyresorufin O-deethylation (CYP1A2), tolbutamide methylhydroxylation (CYP2C9), mephenyloin 4′-hydroxylation (CYP2C19), dextromethorphan O-demethylation (CYP2D6), and terfenedine hydroxylation as typical substrate metabolism reactions of human main five CYP enzyme forms (CYP1A2, 2C9, 2C19, 2D6, 3A4), an inhibitory degree of each metabolite production amount by a test compound was assessed. The reaction conditions were as follows: substrate, 0.5 μmol/L ethoxyresorufin (CYP1A2), 100 μmol/L tolbutamide (CYP2C9), 50 μmol/L S-mephenitoin (CYP2C19), 5 μmol/L dextromethorphan (CYP2D6), 1 μmol/L terfenedine (CYP3A4); reaction time, 15 minutes; reaction temperature, 37° C.; enzyme, pooled human hepatic microsome 0.2 mg protein/mL; test drug concentration, 1, 5, 10, 20 μmol/L (four points). Each five kinds of substrates, human hepatic microsome, or a test drug in 50 mM Hepes buffer as a reaction solution was added to a 96-well plate at the composition as described above, NADPH, as a cofactor was added to initiate metabolism reactions as markers and, after the incubation at 37° C. for 15 minutes, a methanol/acetonitrile=1/1 (v/v) solution was added to stop the reaction. After the centrifugation at 3000 rpm for 15 minutes, resorufin (CYP1A2 metabolite) in the supernatant was quantified by a fluorescent multilabel counter and tributamide hydroxide (CYP2CP metabolite), mephenyloin 4′ hydroxide (CYP2C19 metabolite), […] (CYP2D6 metabolite), and terfenadine alcohol (CYP3A4 metabolite) were quantified by LC/MS/MS. Addition of only DMSO being a solvent dissolving a drug to a reaction system was adopted as a control (100%), remaining activity (%) was calculated at each concentration of a test drug added as the solution and IC50 was calculated by reverse presumption by a logistic model using a concentration and an inhibition rate.
# CYP2C19 = biological target: T4, CYP2C19 (Homo sapiens, UniProt P33261); assay: as above; assay type: in vitro ADME; conditions: mephenyloin 4′-hydroxylation
# T4 construct: enzyme, pooled human hepatic microsome 0.2 mg protein/mL; from tissue
# Experimental: as §1
# CYP2C9 = biological target: T5, CYP2C9 (Homo sapiens, UniProt P11712); assay: as above; assay type: in vitro ADME; conditions: tolbutamide methylhydroxylation
# T5 construct: enzyme, pooled human hepatic microsome 0.2 mg protein/mL; from tissue
# Experimental: as §1
# CYP2D6 = biological target: T6, CYP2D6 (Homo sapiens, UniProt P10635); assay: as above; assay type: in vitro ADME; conditions: dextromethorphan O-demethylation
# T6 construct: enzyme, pooled human hepatic microsome 0.2 mg protein/mL; from tissue
# Experimental: as §1
# [2] = Solubility test (artificial intestinal juice pH 6.8, 1% DMSO); assay type: physicochemical; conditions: artificial intestinal juice pH 6.8 with 1% DMSO, fassgf or other biorelevant, kinetic from dmso stock, 25° C.
# Experimental: The solubility of a compound is determined under a condition in which 1% DMSO is added. 10 mM compound solution is prepared using DMSO, and then 6 μL of the compound solution is added to 594 μL of artificial intestinal juice in pH 6.8 (to 250 mL of 0.2 mol/L potassium dihydrogen phosphate reagent solution is added 118 mL of 0.2 mol/L NaOH reagent solution and water to provide a final volume of 1000 mL). After standing at 25° C. for 16 hours, the mixed solution is filtrated with suction. The filtrate is diluted twice with methanol/water (1/1), and then a concentration in the filtration is measured with HPLC or LC/MS/MS by the absolute calibration method.
# CYP3A4 [3] = biological target: T7, CYP3A4 (Homo sapiens, UniProt P08684); assay: CYP3A4 fluorescent MBI test; assay type: in vitro ADME; parameters: host or cells: Escherichia coli; conditions: prereaction 0 or 30 minutes; substrate 7-BFC; CYP3A4 expressed in Escherichia coli
# Experimental: The CYP3A4 fluorescent MBI test is a test of investigating enhancement of CYP3A4 inhibition of a compound by a metabolism reaction, and the test was performed using, as CYP3A4 enzyme expressed in Escherichia coli and employing, as an index, a reaction in which 7-benzyloxytrifluoromethylchmarin (BFC) is debenzylated by the CYP3A4 enzyme to produce a metabolite, 7-hydroxytrifluoromethylchmarin (HFC) emitting fluorescent light.
# The reaction conditions were as follows: substrate, 5.6 μmol/L 7-BFC; prereaction time, 0 or 30 minutes; reaction time, 15 minutes; reaction temperature, 25° C. […]
# An enzyme in a K-Pi buffer (pH 7.4) and a test drug solution as a pre-reaction solution were added to a 96-well plate at the composition of the pre-reaction, a part of it was transferred to another 96-well plate so that it was 1/10 diluted by a substrate in a K-Pi buffer, NADPH as a co-factor was added to initiate a reaction as an index (without preincubation) and, after a predetermined time of a reaction, acetonitrile/0.5 mol/L Tris(trishydroxyaminomethane)=4/1 was added to stop the reaction. […] For the plate on which each index reaction had been performed, a fluorescent value of 7-HFC which is a metabolite was measured with a fluorescent plate reader. […]
# CYP3A4 [4] = biological target: T7, CYP3A4; assay: CYP inhibition test (pooled human hepatic microsome); assay type: in vitro ADME; parameters: enzyme, pooled human hepatic microsome 0.2 mg protein/mL; from tissue; conditions: terfenedine hydroxylation
# Experimental: Using commercially available pooled human hepatic microsome, and employing, as markers, 7-ethoxyresorufin O-deethylation (CYP1A2), tolbutamide methylhydroxylation (CYP2C9), mephenyloin 4′-hydroxylation (CYP2C19), dextromethorphan O-demethylation (CYP2D6), and terfenedine hydroxylation as typical substrate metabolism reactions of human main five CYP enzyme forms (CYP1A2, 2C9, 2C19, 2D6, 3A4), an inhibitory degree of each metabolite production amount by a test compound was assessed. […] After the centrifugation at 3000 rpm for 15 minutes, resorufin (CYP1A2 metabolite) in the supernatant was quantified by a fluorescent multilabel counter and tributamide hydroxide (CYP2CP metabolite), mephenyloin 4′ hydroxide (CYP2C19 metabolite), […], and terfenadine alcohol (CYP3A4 metabolite) were quantified by LC/MS/MS. Addition of only DMSO being a solvent dissolving a drug to a reaction system was adopted as a control (100%), remaining activity (%) was calculated at each concentration of a test drug added as the solution and IC50 was calculated by reverse presumption by a logistic model using a concentration and an inhibition rate.
# T7 sequence (P08684 whole entry): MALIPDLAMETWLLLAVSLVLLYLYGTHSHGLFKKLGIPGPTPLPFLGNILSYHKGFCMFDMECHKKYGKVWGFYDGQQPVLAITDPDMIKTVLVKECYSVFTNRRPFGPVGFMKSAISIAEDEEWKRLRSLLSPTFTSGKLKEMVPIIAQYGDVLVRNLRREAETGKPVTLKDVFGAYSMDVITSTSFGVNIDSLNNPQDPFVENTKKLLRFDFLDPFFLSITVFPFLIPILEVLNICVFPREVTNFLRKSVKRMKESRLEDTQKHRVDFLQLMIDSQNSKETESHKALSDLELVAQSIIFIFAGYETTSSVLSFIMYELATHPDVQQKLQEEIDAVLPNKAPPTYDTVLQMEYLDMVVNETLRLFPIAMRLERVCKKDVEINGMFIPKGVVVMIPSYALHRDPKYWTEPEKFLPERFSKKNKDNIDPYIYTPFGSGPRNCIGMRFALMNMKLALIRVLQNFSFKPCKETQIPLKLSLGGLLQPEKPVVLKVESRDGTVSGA
# T2 sequence (Q12809 whole entry): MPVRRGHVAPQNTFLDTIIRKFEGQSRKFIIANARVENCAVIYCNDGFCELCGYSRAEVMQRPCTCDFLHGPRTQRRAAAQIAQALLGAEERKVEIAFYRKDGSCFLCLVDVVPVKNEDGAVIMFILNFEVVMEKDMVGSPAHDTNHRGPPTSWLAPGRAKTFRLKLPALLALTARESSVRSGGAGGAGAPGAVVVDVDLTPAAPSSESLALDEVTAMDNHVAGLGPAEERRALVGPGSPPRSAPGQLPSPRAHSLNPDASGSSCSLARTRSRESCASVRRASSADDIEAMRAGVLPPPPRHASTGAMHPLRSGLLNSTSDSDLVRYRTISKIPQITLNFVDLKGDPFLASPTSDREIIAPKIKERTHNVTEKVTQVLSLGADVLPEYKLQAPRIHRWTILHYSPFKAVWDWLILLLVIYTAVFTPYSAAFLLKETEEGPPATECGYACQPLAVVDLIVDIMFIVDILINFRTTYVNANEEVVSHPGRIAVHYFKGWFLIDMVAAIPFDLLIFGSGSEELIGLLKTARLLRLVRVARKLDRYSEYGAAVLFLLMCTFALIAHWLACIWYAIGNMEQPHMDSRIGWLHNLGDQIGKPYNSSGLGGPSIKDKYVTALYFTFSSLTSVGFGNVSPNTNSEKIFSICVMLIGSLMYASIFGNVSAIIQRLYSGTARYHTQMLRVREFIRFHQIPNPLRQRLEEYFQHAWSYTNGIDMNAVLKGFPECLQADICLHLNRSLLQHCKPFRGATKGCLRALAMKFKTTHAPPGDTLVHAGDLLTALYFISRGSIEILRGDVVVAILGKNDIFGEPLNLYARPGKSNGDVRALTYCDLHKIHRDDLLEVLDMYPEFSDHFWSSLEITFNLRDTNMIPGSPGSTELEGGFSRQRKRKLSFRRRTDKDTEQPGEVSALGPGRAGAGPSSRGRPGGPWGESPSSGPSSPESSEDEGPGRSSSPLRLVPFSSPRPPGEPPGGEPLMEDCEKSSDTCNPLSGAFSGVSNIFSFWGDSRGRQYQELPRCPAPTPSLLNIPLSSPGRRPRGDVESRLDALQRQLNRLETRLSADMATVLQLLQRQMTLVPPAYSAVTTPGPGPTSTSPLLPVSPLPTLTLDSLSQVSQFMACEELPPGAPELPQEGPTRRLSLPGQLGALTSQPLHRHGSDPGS
# T5 sequence (P11712 whole entry): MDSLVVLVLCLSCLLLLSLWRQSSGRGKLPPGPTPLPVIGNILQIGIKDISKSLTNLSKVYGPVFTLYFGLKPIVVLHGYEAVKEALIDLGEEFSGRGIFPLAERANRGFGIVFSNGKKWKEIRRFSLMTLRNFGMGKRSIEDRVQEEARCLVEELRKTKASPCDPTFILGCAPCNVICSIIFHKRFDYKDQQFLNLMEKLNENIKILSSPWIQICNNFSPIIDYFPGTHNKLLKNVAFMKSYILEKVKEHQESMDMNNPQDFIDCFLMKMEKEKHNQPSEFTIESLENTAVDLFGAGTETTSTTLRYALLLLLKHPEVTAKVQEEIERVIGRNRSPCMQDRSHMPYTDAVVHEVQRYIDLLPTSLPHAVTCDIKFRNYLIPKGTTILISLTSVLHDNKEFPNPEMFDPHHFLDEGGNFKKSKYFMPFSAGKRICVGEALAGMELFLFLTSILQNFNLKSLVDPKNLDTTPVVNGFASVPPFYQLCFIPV
# T4 sequence (P33261 whole entry): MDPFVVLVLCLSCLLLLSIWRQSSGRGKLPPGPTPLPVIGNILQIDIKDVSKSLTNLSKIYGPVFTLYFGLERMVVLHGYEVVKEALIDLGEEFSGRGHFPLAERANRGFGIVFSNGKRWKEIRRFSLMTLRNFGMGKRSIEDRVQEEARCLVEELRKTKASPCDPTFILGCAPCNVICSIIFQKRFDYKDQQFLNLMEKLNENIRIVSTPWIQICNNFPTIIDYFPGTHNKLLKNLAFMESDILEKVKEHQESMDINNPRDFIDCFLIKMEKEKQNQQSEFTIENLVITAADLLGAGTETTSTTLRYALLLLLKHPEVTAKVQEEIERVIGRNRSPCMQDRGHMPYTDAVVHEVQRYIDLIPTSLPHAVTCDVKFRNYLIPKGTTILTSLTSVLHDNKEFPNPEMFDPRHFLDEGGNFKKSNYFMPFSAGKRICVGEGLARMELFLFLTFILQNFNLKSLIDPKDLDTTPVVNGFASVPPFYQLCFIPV
# T6 sequence (P10635 whole entry): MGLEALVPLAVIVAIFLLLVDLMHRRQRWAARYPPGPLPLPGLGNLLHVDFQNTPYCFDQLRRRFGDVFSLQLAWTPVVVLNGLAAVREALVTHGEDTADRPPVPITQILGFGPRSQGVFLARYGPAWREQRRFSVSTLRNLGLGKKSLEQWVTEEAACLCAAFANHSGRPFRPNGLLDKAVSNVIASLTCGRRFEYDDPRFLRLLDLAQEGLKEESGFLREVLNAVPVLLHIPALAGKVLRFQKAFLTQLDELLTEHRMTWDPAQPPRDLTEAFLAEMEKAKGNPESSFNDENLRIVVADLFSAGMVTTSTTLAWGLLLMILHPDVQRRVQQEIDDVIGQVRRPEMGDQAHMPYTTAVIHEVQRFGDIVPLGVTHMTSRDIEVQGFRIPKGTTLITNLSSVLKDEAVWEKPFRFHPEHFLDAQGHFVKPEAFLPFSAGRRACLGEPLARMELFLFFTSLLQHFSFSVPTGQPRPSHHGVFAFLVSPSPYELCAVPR
Ki (human HRH4) [nM],bioavailability [1] [%],IC50 (CYP1A2) [nM],IC50 (CYP2C19) [nM],IC50 (CYP2C9) [nM],IC50 (CYP2D6) [nM],solubility at 16 h [2] [µM],IC50 (CYP3A4 [4]) [nM],Structure (SMILES),"inhibition at 10 min, 1 μmol/L (hERG (IKr)) [%]",CYP3A4 MBI: difference between IC50 values (CYP3A4 [3])
150,31,,,,,,,CN1CCN(C(=O)c2cc3c([nH]2)CCC(C#N)C3)CC1 (stereo not shown) [Compound I-035],0,
270,,,,,,,,CN1CCN(C(=O)c2cc3c([nH]2)C(CO)CCC3)CC1 (stereo not shown) [Compound I-043],0,
63,,> 20000,> 20000,> 20000,> 20000,> 50,> 20000,CN1CCN(C(=O)c2cc3c([nH]2)CCC(F)(F)C3)CC1 [Compound I-050],,"(−) (when the difference is 3 μM or less, this was defined as (−))"
